Laboratory results published in patent publication US20220339141A1, “COMBINATION TREATMENT WITH A P53 REACTIVATOR AND AN INHIBITOR OF AN ANTIAPOPTOTIC BCL-2 FAMILY PROTEIN” (Aprea Therapeutics AB, priority 2019, published 2022).
Where two headings read alike, the source gives them in different places.

How the values were obtained:
MV4-11 = assay: CellTiter-Glo cell viability, 72 h, single agents and combination dose matrix; assay type: cell-based; details: Homo sapiens
Experimental: For MV4-11: IMEM (Sigma Cat. no. I3390), 10% FBS (Sigma Cat. no. F084) and 1% L-glutamine (Sigma, Cat.no. G7513).
(§1) 75 cm^2 flask (100% confluent) cells was transfer to a 15 ml tube and centrifuged at 1000 RPM for 5 min. Then supernatant was discarded, and cell pellet was resuspended in 6 ml medium. The cells were counted in the TC20 automated cell counter. 10 ml cell culture medium was prepared with 60,000 cells/ml, corresponding to 3,000 cells when 50 μl is seeded out (for MOLM-13, 12,000 cells were used). Cells were seeded in 96-well plates in column 2-12, row B-G, for blank, 100 μL cell culture medium was added. Plates were incubated overnight at 37° C.
(§2) Combenefit 2.021 was used for data analysis.
(§3) The CellTiter-Glo® Luminescent Cell Viability Assay is a homogeneous method of determining the number of viable cells in culture based on quantitation of the ATP present, an indicator of metabolically active cells. The homogeneous assay procedure involves adding the single reagent (CellTiter-Glo® Reagent) directly to cells cultured in serum-supplemented medium. The homogeneous “add-mix-measure” format results in cell lysis and generation of a luminescent signal proportional to the amount of ATP present. The amount of ATP is directly proportional to the number of cells present in culture.
(§4) The experimental dose-response surface that delineates combination effects in concentration space, is first read by the Combenefit software as a matrix of % of the control value across concentrations. […] Based on the two single agent dose response curves, a model-based combination dose-response surface is derived. This surface provides a “reference” dose-response surface for a non-synergistic (additive/independent) combination, whose characteristics are determined by the selected model (i.e., Loewe, Bliss or HSA). The experimental combination dose response surface is then compared to the model-generated one, resulting in a synergy distribution in concentration space.
(§5) This synergy distribution can be further summarized via various metrics (Di Veroli. C, Bioinformatics, 32(18), 2016, 2866-2868) as follows: • SYN_MAX—the maximum level of synergy observed. • SYN_SUM—the sum of synergy observed in concentration logarithmic space. For instance, an integrated synergy of 50 is equivalent to an extra synergistic effect of 50% which is spread over a square of 1 log×1 log in the 2-d log-concentration space.

AML cell lines [1] = assay: CellTiter-Glo cell viability, results summarised over the cell line panel; details: for IC50: read-out: IC50 values, range over cell lines
Experimental: (§7) Plates was taken from the incubator to reach room temperature about 30 min. 100 μL CellTiter-Glo was added to all wells (except edge wells). Plates were then shaken on a plate shaker for 3 minutes at room temperature; thereafter the plates were set for 10 min at room temperature to allow cell lysis to appear. The luminescence was measured using the PerkinElmer Victor×4 instrument using the built-in program according to Instruction 11. Combenefit 2.021 was used for data analysis.
(§8) For IC50 determinations, the serial dilution of compounds was performed in cell culture medium based on 1.5- or 2-fold dilution factor. The serially diluted compounds were added to the cells and incubated for 72 h followed by cell viability test using the CTG assay. For each concentration, the current viability values were calculated and IC50 values were determined by XLfit software version 5.5.0.5 (a Microsoft Excel-based plug-in to perform regression, curve fitting and statistical analysis).
(§9) Combenefit performs combination analyses using the standard Loewe, Bliss and HSA methods. In the HSA model, the synergy score quantifies the excess over the highest single drug response. In the Loewe model, the synergy score quantifies the excess over the expected response if the two drugs are the same compound.
(§10) A “combination index” (CI) is then calculated as the measured cell viability of the sample with two co-incubated substances divided by the predicted cell viability.
(§11) If the measured cell viability for a combination of two substances is higher than the cell viability for one or both substances, the effect is considered antagonistic. If the predicted viability is very low, the quote “measured viability/predicted viability” may give false CI values.

SKM-1 = assay: CellTiter-Glo cell viability, 72 h, single agents and combination dose matrix; assay type: cell-based; details: single agent
Experimental: For SKM-1, RPMI (R8758, Sigma Aldrich)+20% FBS (F0804, Sigma Aldrich), heat inactivated at 56° C. for 60 min.
as §1, §2, §3
The experimental dose-response surface that delineates combination effects in concentration space, is first read by the Combenefit software as a matrix of % of the control value across concentrations. […] Based on the two single agent dose response curves, a model-based combination dose-response surface is derived. This surface provides a “reference” dose-response surface for a non-synergistic (additive/independent) combination, whose characteristics are determined by the selected model (i.e., Loewe, Bliss or HSA). The experimental combination dose response surface is then compared to the model-generated one, resulting in a synergy distribution in concentration space. […]

MOLM-13 = assay: as above; assay type: cell-based; details: Homo sapiens, MOLM-13, 72 h, single agent
Experimental: For MOLM-13, RPMI (R8758, Sigma Aldrich)+10% FBS (F0804, Sigma Aldrich), heat inactivated at 56° C. for 60 min.
as §1, §2, §3, §4, §5

HL-60 = assay: as above; assay type: cell-based; details: Homo sapiens
Experimental: (§6) For cell lines KBM3, KG-1 and HL-60: IMEM (Sigma Cat. no. I3390), 20% FBS (Sigma Cat. no. F084) and 1% L-glutamine (Sigma, Cat.no. G7513).
as §1, §2, §3, §4, §5

KG-1 = assay: as above; assay type: cell-based; details: Homo sapiens
Experimental: as §6, §1, §2, §3, §4, §5

KBM-3 = assay: as above; assay type: cell-based
Experimental: as §6, §1, §2, §3, §4, §5

AML cell lines [2] = tested on: AML cell lines
Experimental: as §7, §8, §9, §10, §11

[3] = MV4-11 (AML, p53 R248W), single agent
[4] = Homo sapiens, SKM-1 (MDS, p53 R248Q)
[5] = HL-60 (AML, p53 Null (deletion)), single agent
[6] = KG-1 (AML, p53 Intron6/splice), single agent
[7] = KBM-3 (AML, p53 WT), single agent
[8] = MOLM-13 (AML, p53 WT), separate study of Example 3

Structure (SMILES)	IC50 (MV4-11; [3]) [µM]	single agent anti-proliferative activity (AML cell lines [1])	IC50 (AML cell lines [1]) [µM]	IC50 (SKM-1; [4]) [µM]	IC50 (MOLM-13; MOLM-13 (AML, p53 WT)) [µM]	IC50 (HL-60; [5]) [µM]	IC50 (KG-1; [6]) [µM]	IC50 (KBM-3; [7]) [µM]	IC50 (MV4-11; MV4-11, single agent, Example 4) [µM]	IC50 (MOLM-13; MOLM-13, Example 4) [µM]	IC50 (HL-60; HL-60, single agent, Example 4) [µM]	IC50 (KG-1; KG-1, single agent, Example 4) [µM]	IC50 (KBM-3; KBM-3, single agent, Example 4) [µM]	IC50 (MV4-11; MV4-11, single agent, Example 3) [µM]	single agent cytotoxic activity (AML cell lines [2])	IC50 (SKM-1; SKM-1 (MDS/AML, p53 R248Q homo/hemizygous), separate study of Example 3) [µM]	IC50 (MOLM-13; [8]) [µM]	IC50 (KBM-3; KBM-3, single agent, Example 3) [µM]	single agent cytotoxic activity (AML cell lines [1]; MOLM-13 and SKM-1)	IC50 (AML cell lines [1]; single agent, cell lines of Table 3) [µM]
COCC1(CO)C(=O)C2CCN1CC2 (stereo not drawn) [APR-246, 2-(hydroxymethyl)-2-(methoxymethyl)quinuclidin-3-one]	2.5	dose-dependent anti-proliferative activity	1 to 11	1.09	9.5	8.1	11	3.7												
COc1ccccc1-c1nccc(COc2ccccc2CC(Oc2ncnc3sc(-c4ccc(F)cc4)c(-c4ccc(OCCN5CCN(C)CC5)c(Cl)c4C)c23)C(=O)O)n1 (stereo in doubt) [MIK665, (R)-2-((5-(3-chloro-2-methyl-4-(2-(4-methylpiperazin-1-yl)ethoxy)phenyl)-6-(4-fluorophenyl)thieno[2,3-d]pyrimidin-4-yl)oxy)-3-(2-((2-(2-methoxyphenyl)pyrimidin-4-yl)methoxy)phenyl)propanoic acid]		dose-dependent anti-proliferative activity	0.001 to 0.6						0.0014	0.002	0.007	0.6	0.04							
O=C1C2CCN(CC2)C1CNC(=O)C(F)(F)F (stereo not drawn) [Compound A, 2,2,2-trifluoro-N-((3-oxoquinuclidin-2-yl)methyl)acetamide]														1	dose-dependent cytotoxic activity	0.66	3.6	1.7		
CC1(C)CCC(CN2CCN(c3ccc(C(=O)NS(=O)(=O)c4ccc(NCC5CCOCC5)c([N+](=O)[O-])c4)c(Oc4cnc5[nH]ccc5c4)c3)CC2)=C(c2ccc(Cl)cc2)C1 [ABT-199, 2-(1H-pyrrolo[2,3-b]pyridin-5-yloxy)-4-(4-((2-(4-chlorophenyl)-4,4-dimethylcyclohex-1-enyl)methyl)piperazin-1-yl)-N-(3-nitro-4-(((tetrahydro-2H-pyran-4-yl)methyl)amino)phenylsulfonyl)benzamide]	0.16	dose-dependent anti-proliferative activity		0.07	0.001	0.06	1.5	1.36									0.0014		dose-dependent cytotoxic activity	0.001 to 1.5
